Measurements reported in patent publication US20060079453A1, “Hla binding peptides and their uses” (priority 2002, published 2006).
No end group written: not given here.

Assays:
Assay in all cases: biochemical
Assay type in all cases: binding
[1] = molecular target: HLA-DR DRB3*0101 (DR52) (Homo sapiens, UniProt P01903+P79483)
[2] = molecular target: HLA-DR DRB1*0901 (DR9) (Homo sapiens, UniProt P01903+P01911, A100R/A103E/D57H/D86V/F55Y/F60I/F76Y/I96F/K127E/L162R/M171V/P40D/Q125H/Q99R/R33Q/R42F/S133A/S66N/T210M/V115G/W38K/Y107V/Y59G/Y89S); settings: DRB1 *0901
[3] = molecular target: HLA-DR DRB1*0701 (DR7) (Homo sapiens, UniProt P01903+P01911, A100R/A102G/A103Q/D57E/D86V/E43K/F76Y/K127E/L162R/M171V/P40G/Q125H/Q99D/R33Q/R42Y/R54Q/S133A/S66F/T210M/V115G/Y107V/Y59L/Y89S); settings: DRB1 *0701
[4] = molecular target: HLA-DR DRB1*1101 (DR11) (Homo sapiens, UniProt P01903+P01911, A100R/A169T/A87E/I96F/K41T/L162R/M171V/P40S/Q125H/Q178H/Q39Y/Q99D/R42S/S66Y/T262R/V115G/W38E); settings: DRB1 *1101
Sequence of HLA-DR DRB1*1101 (DR11) (P01903 26-254 limits assumed, other chains not shown): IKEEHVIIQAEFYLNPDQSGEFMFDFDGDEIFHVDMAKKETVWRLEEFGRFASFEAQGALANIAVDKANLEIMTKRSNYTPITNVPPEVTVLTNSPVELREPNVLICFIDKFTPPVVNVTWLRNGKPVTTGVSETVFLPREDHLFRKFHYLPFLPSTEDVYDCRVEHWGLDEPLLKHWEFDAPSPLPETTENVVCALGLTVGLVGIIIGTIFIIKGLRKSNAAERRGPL

[5] = molecular target: HLA-DR DRB1*1302 (DR13) (Homo sapiens, UniProt P01903+P01911, A100E/A169T/K41T/L162R/M171V/P40S/Q125H/Q178H/Q39Y/Q99D/R42S/S66N/T262R/V115G/W38E/Y61H); settings: DRBI *1302
Sequence of HLA-DR DRB1*1302 (DR13) (P01903 26-254 limits assumed, other chains not shown): as above

[6] = molecular target: HLA-DR DRB1*0802 (DR8) (Homo sapiens, UniProt P01903+P01911, A100R/A103L/A169T/F76Y/H45Y/I96F/K41T/L162R/M171V/P40S/Q125H/Q178H/Q39Y/Q99D/R218S/R42G/S66Y/V115G/W38E)
[7] = molecular target: HLA-DR DRB4*0101 (DR53) (Homo sapiens, UniProt P01903+P13762, G164S); settings: DRB4 *0101
[8] = molecular target: HLA-DR DRB1*0401 (DR4) (Homo sapiens, UniProt P01903+P01911, A100K/A169T/F76Y/I96L/K127E/L162R/M171V/N62H/P40V/Q125Y/R42H/S133A/S149N/S66Y/V115G/V209L/W38E); settings: DRB1 *0401
[9] = molecular target: HLA-DR DRB5*0101 (DR51) (Homo sapiens, UniProt P01903+Q30154); settings: DRB5 *0101
[10] = molecular target: HLA-DR DRB1*1501 (DR15) (Homo sapiens, UniProt P01903+P01911); settings: DRBI *1501
[11] = molecular target: HLA-DR DRB1*0101 (DR1) (Homo sapiens, UniProt P01903+P01911, A100R/D57E/F55L/F60I/F76Y/I96L/L162R/M171V/P40L/Q125E/R42F/V115G/Y59C); settings: DRB1 *0101

In the case of DFEVFFQRLGIASGR, the IC50 [1] is reported as 30.7 µM, the IC50 [2] is reported as 2 µM and the IC50 [3] is reported as 21.9 µM. It also gave an IC50 [4] of 0.128 µM, an IC50 [5] of 10.1 µM and an IC50 [6] of 0.122 µM. The IC50 [7] was 0.0042 µM, the IC50 [8] was 0.221 µM and the IC50 [9] was 3.56 µM. It also gave an IC50 [10] of 10.2 µM.
Molecule `CSCC[C@H](NC(=O)[C@H](CC(=O)O)NC(=O)[C@H](Cc1ccc(O)cc1)NC(=O)[C@H](CC(C)C)NC(=O)[C@@H]1CCCN1C(=O)[C@H](Cc1c[nH]cn1)NC(=O)[C@@H]1CCCN1)C(=O)N[C@@H](CO)C(=O)N[C@@H](CC(C)C)C(=O)N[C@@H](CC(C)C)C(=O)N[C@@H](CCCCN)C(=O)N[C@@H](CC(N)=O)C(=O)N[C@@H](CCCNC(=N)N)C(=O)N[C@@H](Cc1ccccc1)C(=O)N[C@@H](CC(C)C)C(=O)O` has an IC50 [1] of over 13.5 µM, an IC50 [2] of 12.8 µM and an IC50 [3] of 10.7 µM. For the same molecule, the IC50 [4] was over 50 µM, the IC50 [5] was 11.7 µM and the IC50 [6] was 29.8 µM. The IC50 [7] was 7.49 µM, the IC50 [8] was 20.8 µM and the IC50 [9] was 3.1 µM. For the same molecule, the IC50 [10] was 0.712 µM.
With `CC[C@H](C)[C@H](NC(=O)CNC(=O)[C@H](CCCNC(=N)N)NC(=O)[C@H](CCCNC(=N)N)NC(=O)[C@H](Cc1ccc(O)cc1)NC(=O)[C@H](C)NC(=O)[C@H](Cc1ccc(O)cc1)NC(=O)[C@@H](N)CCC(=O)O)C(=O)N[C@@H](C)C(=O)N[C@@H](CCC(=O)O)C(=O)N[C@@H](C)C(=O)N[C@H](C(=O)NCC(=O)N[C@@H](CC(C)C)C(=O)N1CCC[C@H]1C(=O)O)C(C)C` the IC50 [1] was 8.77 µM, the IC50 [2] was 0.067 µM and the IC50 [3] was 0.07 µM. The IC50 [4] was 2.59 µM, the IC50 [5] was 5.22 µM and the IC50 [11] was 0.0051 µM. The IC50 [6] was 0.596 µM, the IC50 [7] was 6.32 µM and the IC50 [8] was 0.213 µM. The IC50 [9] was 1.2 µM and the IC50 [10] was over 45.5 µM.
`CC[C@H](C)[C@H](NC(=O)CNC(=O)[C@H](CCC(N)=O)NC(=O)[C@H](CC(C)C)NC(=O)[C@@H](NC(=O)CNC(=O)[C@H](CC(N)=O)NC(=O)[C@H](CS)NC(=O)[C@@H](NC(=O)[C@H](CC(C)C)NC(=O)[C@@H]1CCCN1C(=O)CNC(=O)CN)C(C)C)C(C)C)C(=O)N[C@H](C(=O)N[C@@H](CO)C(=O)O)[C@@H](C)O` was tested, and the IC50 [1] was over 6.57 µM, the IC50 [2] was 16.3 µM and the IC50 [3] was over 35.7 µM. The IC50 [4] was 1.83 µM, the IC50 [5] was 0.036 µM and the IC50 [11] was 3.35 µM. It also gave an IC50 [6] of 9.33 µM, an IC50 [7] of 0.815 µM and an IC50 [8] of 0.068 µM. The IC50 [9] was 13.4 µM and the IC50 [10] was 30.3 µM.
`CSCC[C@H](NC(=O)[C@@H](NC(=O)[C@H](CCCCN)NC(=O)[C@@H](NC(=O)[C@H](C)NC(=O)[C@H](CC(=O)O)NC(=O)[C@@H](N)[C@@H](C)O)C(C)C)C(C)C)C(=O)N[C@@H](CC(=O)O)C(=O)N[C@@H](CC(C)C)C(=O)N1CCC[C@H]1C(=O)N[C@H](C(=O)N[C@@H](CCC(N)=O)C(=O)N[C@@H](CCC(=O)O)C(=O)N1CCC[C@H]1C(=O)N[C@@H](C)C(=O)O)[C@@H](C)O` was tested, and the IC50 [1] was over 13.5 µM, the IC50 [2] was over 107 µM and the IC50 [3] was over 41.7 µM. It also gave an IC50 [4] of over 50 µM, an IC50 [5] of over 35 µM and an IC50 [11] of over 50 µM. The IC50 [6] was 20.9 µM, the IC50 [7] was 0.747 µM and the IC50 [8] was over 80 µM. For the same molecule, the IC50 [9] was over 200 µM and the IC50 [10] was over 45.5 µM.
Molecule `CC[C@H](C)[C@H](NC(=O)[C@H](CO)NC(=O)[C@H](CC(C)C)NC(=O)[C@@H](NC(=O)[C@H](CC(C)C)NC(=O)[C@@H](N)CC(=O)O)C(C)C)C(=O)N[C@@H](C)C(=O)N[C@@H](CC(C)C)C(=O)N[C@@H](CO)C(=O)N[C@H](C(=O)NCC(=O)N[C@@H](CS)C(=O)N[C@H](C(=O)NCC(=O)N[C@@H](C)C(=O)O)[C@@H](C)O)C(C)C` has an IC50 [1] of over 14.9 µM, an IC50 [2] of 2.2 µM and an IC50 [3] of 4.03 µM. The IC50 [4] was over 200 µM, the IC50 [5] was 0.098 µM and the IC50 [11] was 1.2 µM. It also gave an IC50 [6] of over 245 µM, an IC50 [7] of 0.459 µM and an IC50 [8] of 13 µM. For the same molecule, the IC50 [9] was over 100 µM and the IC50 [10] was 18.2 µM.
For PHPLYNMSLLKHQSL, the IC50 [1] was over 14.9 µM, the IC50 [2] was 1.59 µM and the IC50 [3] was 20.7 µM. It also gave an IC50 [4] of 6.46 µM, an IC50 [5] of 3.31 µM and an IC50 [11] of 19.1 µM. For the same molecule, the IC50 [6] was 3.31 µM, the IC50 [7] was 0.049 µM and the IC50 [8] was 0.819 µM. For the same molecule, the IC50 [9] was 1.9 µM and the IC50 [10] was 3.87 µM.
